# Laboratory results published in patent publication US9963518B2, “Cyclic oligosaccharides for use in the treatment and prevention of bacterial infection” (priority 2011, dated 2018).
# Like-named read-outs stand apart in the source and are kept apart here.
# How the values were obtained:
# Wza Y110G/K375C = Wza Y110G/K375C (Escherichia coli, UniProt Q9X4B7, K375C/Y110G); assay: Single-channel electrical recording, blockers against mutant Wza Y110G/K375C; type: binding, E. coli; details: Y110G/K375C; for Kd: n = 3, 2M KCl buffer pH 7.5
# Procedure: The Wza pore was opened by replacing the tyrosines at position 110 that line the narrowest region of the lumen with glycine. To confirm that the currents observed indeed arose from the mutant pore, a cysteine was introduced in the α-helix barrel (Y110G/K375C) and would therefore yield a characteristic reversible blockade when derivatized with a suitable thiol-specific reagent.
# The unitary conductance of the Y110G/K375C pore was determined as for wt-Wza, by measuring stepwise-insertion using the same technique referenced above. The mean open current of Y110G/K375C was determined to be +85±14.1 pA (+50 mV, n=31), corresponding to 1.70±0.28 nS (+50 mV, n=31) in conductance.
# (§1) Thirteen commercial cyclodextrins (CDs) were tested for their ability to block WT-Wza and the mutant Y110G/K375C (Table 1) including, neutral, negatively charged or positively charged cyclodextrins. Testing was carried out using electrical channel recording in high salt buffer (2M KCl, 5 mM HEPES, 100 μM EDTA, 200 μM DTT) at pH 7.5.
# WT Wza = WT Wza (Escherichia coli, UniProt Q9X4B7); assay: Single-channel electrical recording, blockers against wt-Wza in planar lipid bilayers; type: binding, E. coli; details: for Interaction with WT Wza: 2M KCl, 5 mM HEPES, 100 μM EDTA, 200 μM DTT, pH 7.5
# Procedure: The Wt Wza transporter was tested in single-channel recording, in accordance with the procedures of Naismith (Nature 2006, 444, 226-229) for its ability to form pores in planar lipid bilayers. Sequential insertions of channels in a single orientation were used to measure the conductance of a single channel because more than one channel could insert simultaneously during the first introduction, especially when protein molecules have not properly diffused yet. Repetition of experiments helped to verify conductance of a single channel. […] After collection of 37 insertions of wt Wza channel, the current of a single channel of wt Wza in 2 M KCl buffer was determined to be 1.89±0.01 pA (n=37) on average, corresponding to 18.9±0.1 pS (n=37) in conductance.
# as §1
# E. coli strain E69 = assay: LPS exposure assay, O9a LPS to O9a LPS-specific antibodies (FACS); type: cell-based; details: 1 mM, antiserum incubation 1 h; for LPS exposure by median fluorescence intensity: relative to CWG281 positive control
# Procedure: The direct effect of the inhibition of K30 CPS transport on E. coli strain E69 is the appearance of defects in the capsule layer. This should in turn lead to exposure of O9a LPS at the cell surface. To test this hypothesis, the attachment of rabbit anti-O9a antibodies was quantified by flow cytometry (FACS), by using secondary fluorescent anti-rabbit antibodies. The design of the experiment is depicted schematically in FIG. 4a.
# E. coli strains E69 and CWG281 were grown as described above in Example 4 and the OD600 was adjusted to 0.4. The concentrations of cyclodextrin (either am8γCD (compound 13), am6αCD (compound 3) or am7βCD (compound 10)) present in the growth media were 10 nM, 100 nM, 1 μM, 10 μM, 50 μM, 100 μM and 1 mM. 50 μL samples of each were centrifuged at 3,000×g for 10 min to remove the medium, washed with PBS and resuspended in 50 μL PBS. O9a antiserum (0.5 μL) was then added. The mixtures were incubated on ice for 1 h (to compare the effects of am6αCD, am7βCD and am8γCD on the exposure of LPS) or 2 h (for the estimation of minimum effective concentration of am8γCD required to expose LPS to antibodies), followed by centrifugation at 3,000×g for 10 min and washing with PBS. The pellets were resuspended in PBS (50 μL), to which Alexa Fluor 488 Goat Anti-Rabbit IgG secondary antibody (1 μL, Life Technologies, A11034, λex 495 nm, λem 519 nm) was added, followed by incubation for 1 h on ice. The cells were then centrifuged at 3,000×g for 10 min. The pellets were resuspended in PBS (1 mL), followed by analysis by flow cytometry (FACS) using a Becton-Dickinson FACSCalibur. 10,000 cells were analysed for each sample. Fluorescence was measured in the FL1 channel (530 nm).
Compound,"Kd (Wza Y110G/K375C; Kd, interaction with mutant Wza, +3 mV) [µM]","Kd (Wza Y110G/K375C; Kd, interaction with mutant Wza, +75 mV) [µM]",Kd (WT Wza) [µM],"Interaction with mutant Wza (Wza Y110G/K375C; 2M KCl, 5 mM HEPES, 100 μM EDTA, 200 μM DTT, pH 7.5)","Kd (Wza Y110G/K375C; +3 mV, read-out: Kd, interaction with mutant Wza) [µM]",Interaction with WT Wza (WT Wza),LPS exposure by percentage of labelled cells (E. coli strain E69) [%],LPS exposure by median fluorescence intensity (E. coli strain E69) [%]
NC[C@H]1O[C@@H]2O[C@H]3[C@H](O)[C@@H](O)[C@@H](O[C@H]4[C@H](O)[C@@H](O)[C@@H](O[C@H]5[C@H](O)[C@@H](O)[C@@H](O[C@H]6[C@H](O)[C@@H](O)[C@@H](O[C@H]7[C@H](O)[C@@H](O)[C@@H](O[C@H]8[C@H](O)[C@@H](O)[C@@H](O[C@H]1[C@H](O)[C@H]2O)O[C@@H]8CN)O[C@@H]7CN)O[C@@H]6CN)O[C@@H]5CN)O[C@@H]4CN)O[C@@H]3CN [compound 4],2900,2100,13000,–,–,–,–,–
"NC[C@H]1O[C@@H]2O[C@H]3[C@H](O)[C@@H](O)[C@@H](O[C@H]4[C@H](O)[C@@H](O)[C@@H](O[C@H]5[C@H](O)[C@@H](O)[C@@H](O[C@H]6[C@H](O)[C@@H](O)[C@@H](O[C@H]7[C@H](O)[C@@H](O)[C@@H](O[C@H]8[C@H](O)[C@@H](O)[C@@H](O[C@H]1[C@H](O)[C@H]2O)O[C@@H]8CN)O[C@@H]7CN)O[C@@H]6CN)O[C@@H]5CN)O[C@@H]4CN)O[C@@H]3CN [No. 4, heptakis (6-amino-6-deoxy)-β-cyclodextrin]",–,–,–,not observed^b,2900 ± 1800,not observed,9,1.8
"NCC1OC2OC3C(CN)OC(OC4C(CN)OC(OC5C(CN)OC(OC6C(CN)OC(OC7C(CN)OC(OC1C(O)C2O)C(O)C7O)C(O)C6O)C(O)C5O)C(O)C4O)C(O)C3O (stereo not drawn) [No. 3, hexakis (6-amino-6-deoxy)-α-cyclodextrin]",–,–,–,–,–,not observed,36,3.2
